Assay results from ChEMBL document CHEMBL6092156, “Design and development of a series of 4-(piperazin-1-yl)pyrimidines as irreversible menin inhibitors” (Eur J Med Chem, 2024).

Assays:
MV4-11 [1] = assay: Antiproliferative activity against human MV4-11 cells assessed as cell growth inhibition after 4 days; assay type: functional, cell-based; settings: MV4-11, 96 h
[2] = Suppression of MEN1 gene transcription in human MV4-11 cells assessed as protein synthesis by measuring fold change at 20 nM incubated for 16 hrs relative to control; assay type: functional
[3] = target: Menin/Histone-lysine N-methyltransferase MLL (Homo sapiens, UniProt O00255); assay: Inhibition of menin (unknown origin)/N-terminal FITC-labeled MLL1 peptide (unknown origin) interaction incubated for 30 min by fluorescence polarization assay; assay type: protein assay
Menin/Histone-lysine N-methyltransferase MLL, sequence (O00255 whole entry): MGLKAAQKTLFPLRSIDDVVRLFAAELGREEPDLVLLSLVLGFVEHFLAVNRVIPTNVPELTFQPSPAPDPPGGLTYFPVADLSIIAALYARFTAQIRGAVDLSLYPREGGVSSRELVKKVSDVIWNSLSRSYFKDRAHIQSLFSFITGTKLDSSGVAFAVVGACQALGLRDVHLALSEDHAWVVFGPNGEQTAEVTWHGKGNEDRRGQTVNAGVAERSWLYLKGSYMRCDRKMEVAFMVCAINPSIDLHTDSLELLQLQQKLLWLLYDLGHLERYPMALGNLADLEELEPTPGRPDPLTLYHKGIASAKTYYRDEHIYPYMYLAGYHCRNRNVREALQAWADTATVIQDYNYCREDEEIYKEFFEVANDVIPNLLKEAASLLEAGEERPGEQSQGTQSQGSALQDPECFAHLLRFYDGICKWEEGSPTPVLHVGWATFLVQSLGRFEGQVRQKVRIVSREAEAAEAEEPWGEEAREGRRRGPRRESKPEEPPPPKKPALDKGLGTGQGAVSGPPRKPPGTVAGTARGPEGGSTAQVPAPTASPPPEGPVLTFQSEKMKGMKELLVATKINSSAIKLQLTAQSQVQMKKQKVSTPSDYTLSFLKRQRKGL
Menin/Histone-lysine N-methyltransferase MLL, sequence (Q03164 1-2718 partner limits assumed): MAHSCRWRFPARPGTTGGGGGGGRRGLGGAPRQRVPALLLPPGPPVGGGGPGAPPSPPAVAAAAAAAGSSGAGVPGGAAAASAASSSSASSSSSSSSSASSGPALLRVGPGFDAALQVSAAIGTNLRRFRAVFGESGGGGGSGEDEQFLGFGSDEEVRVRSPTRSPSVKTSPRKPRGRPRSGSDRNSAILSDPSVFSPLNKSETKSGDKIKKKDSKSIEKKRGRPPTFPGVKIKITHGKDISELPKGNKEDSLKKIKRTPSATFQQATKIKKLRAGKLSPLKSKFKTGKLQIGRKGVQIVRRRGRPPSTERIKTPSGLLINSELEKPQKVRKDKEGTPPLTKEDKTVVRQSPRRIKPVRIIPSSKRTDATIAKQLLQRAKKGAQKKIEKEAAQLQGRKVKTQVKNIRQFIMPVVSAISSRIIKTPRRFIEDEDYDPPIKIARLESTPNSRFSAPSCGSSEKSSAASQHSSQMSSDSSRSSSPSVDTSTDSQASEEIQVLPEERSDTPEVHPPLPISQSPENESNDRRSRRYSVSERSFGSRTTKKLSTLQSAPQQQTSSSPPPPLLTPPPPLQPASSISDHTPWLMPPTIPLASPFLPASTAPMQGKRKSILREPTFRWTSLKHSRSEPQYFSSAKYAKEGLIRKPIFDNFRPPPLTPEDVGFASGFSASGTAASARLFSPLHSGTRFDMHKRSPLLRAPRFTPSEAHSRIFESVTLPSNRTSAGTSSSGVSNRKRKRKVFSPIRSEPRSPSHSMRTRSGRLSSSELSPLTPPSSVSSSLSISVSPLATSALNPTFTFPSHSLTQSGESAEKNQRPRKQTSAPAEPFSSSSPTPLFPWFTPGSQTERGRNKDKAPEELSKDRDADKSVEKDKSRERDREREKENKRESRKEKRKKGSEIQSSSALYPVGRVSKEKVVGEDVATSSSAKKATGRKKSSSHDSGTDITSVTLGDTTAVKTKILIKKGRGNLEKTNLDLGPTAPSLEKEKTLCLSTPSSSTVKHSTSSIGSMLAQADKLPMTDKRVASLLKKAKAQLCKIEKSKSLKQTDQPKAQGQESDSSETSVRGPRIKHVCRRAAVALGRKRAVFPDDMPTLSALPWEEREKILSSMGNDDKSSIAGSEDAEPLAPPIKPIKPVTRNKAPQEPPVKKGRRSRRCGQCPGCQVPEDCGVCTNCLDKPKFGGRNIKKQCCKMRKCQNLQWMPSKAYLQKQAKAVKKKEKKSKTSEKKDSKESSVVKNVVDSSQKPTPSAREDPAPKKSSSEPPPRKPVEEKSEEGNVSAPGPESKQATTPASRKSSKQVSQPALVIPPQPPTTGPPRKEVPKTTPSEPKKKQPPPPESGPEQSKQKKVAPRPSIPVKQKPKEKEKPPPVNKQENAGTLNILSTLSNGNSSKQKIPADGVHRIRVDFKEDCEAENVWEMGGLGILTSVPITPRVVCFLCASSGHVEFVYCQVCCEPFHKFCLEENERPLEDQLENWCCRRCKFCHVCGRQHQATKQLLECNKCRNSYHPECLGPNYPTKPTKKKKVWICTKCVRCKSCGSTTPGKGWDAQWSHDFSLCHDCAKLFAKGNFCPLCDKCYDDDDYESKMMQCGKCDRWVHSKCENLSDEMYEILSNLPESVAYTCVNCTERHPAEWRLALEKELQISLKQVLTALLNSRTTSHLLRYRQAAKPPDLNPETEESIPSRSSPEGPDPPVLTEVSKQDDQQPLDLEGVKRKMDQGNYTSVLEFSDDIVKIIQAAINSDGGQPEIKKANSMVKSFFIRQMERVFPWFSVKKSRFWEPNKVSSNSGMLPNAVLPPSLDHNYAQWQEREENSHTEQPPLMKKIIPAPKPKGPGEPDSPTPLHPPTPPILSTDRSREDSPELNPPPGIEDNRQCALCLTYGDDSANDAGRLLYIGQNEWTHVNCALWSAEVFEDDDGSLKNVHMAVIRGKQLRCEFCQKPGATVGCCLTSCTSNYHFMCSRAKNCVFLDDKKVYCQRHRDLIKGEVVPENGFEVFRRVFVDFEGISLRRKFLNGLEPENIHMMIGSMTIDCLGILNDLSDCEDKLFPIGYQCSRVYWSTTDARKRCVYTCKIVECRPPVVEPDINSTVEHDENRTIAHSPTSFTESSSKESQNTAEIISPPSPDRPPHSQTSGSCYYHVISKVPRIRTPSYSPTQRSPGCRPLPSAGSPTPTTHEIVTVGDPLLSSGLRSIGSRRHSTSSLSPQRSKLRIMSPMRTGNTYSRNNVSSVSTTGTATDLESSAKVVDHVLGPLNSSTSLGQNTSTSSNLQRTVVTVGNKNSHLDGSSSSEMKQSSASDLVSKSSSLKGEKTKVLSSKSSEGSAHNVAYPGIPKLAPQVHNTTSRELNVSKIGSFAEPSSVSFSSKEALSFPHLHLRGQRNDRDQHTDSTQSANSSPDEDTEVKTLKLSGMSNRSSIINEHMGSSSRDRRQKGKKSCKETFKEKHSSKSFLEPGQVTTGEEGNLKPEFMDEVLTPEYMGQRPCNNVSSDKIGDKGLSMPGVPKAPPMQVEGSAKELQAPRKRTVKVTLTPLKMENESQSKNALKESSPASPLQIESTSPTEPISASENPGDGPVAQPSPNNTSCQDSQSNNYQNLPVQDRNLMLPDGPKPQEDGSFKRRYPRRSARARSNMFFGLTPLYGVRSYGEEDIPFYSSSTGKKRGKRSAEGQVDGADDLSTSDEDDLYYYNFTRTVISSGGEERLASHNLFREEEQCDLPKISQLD
Menin/Histone-lysine N-methyltransferase MLL, sequence (Q03164 2719-3969 partner limits assumed): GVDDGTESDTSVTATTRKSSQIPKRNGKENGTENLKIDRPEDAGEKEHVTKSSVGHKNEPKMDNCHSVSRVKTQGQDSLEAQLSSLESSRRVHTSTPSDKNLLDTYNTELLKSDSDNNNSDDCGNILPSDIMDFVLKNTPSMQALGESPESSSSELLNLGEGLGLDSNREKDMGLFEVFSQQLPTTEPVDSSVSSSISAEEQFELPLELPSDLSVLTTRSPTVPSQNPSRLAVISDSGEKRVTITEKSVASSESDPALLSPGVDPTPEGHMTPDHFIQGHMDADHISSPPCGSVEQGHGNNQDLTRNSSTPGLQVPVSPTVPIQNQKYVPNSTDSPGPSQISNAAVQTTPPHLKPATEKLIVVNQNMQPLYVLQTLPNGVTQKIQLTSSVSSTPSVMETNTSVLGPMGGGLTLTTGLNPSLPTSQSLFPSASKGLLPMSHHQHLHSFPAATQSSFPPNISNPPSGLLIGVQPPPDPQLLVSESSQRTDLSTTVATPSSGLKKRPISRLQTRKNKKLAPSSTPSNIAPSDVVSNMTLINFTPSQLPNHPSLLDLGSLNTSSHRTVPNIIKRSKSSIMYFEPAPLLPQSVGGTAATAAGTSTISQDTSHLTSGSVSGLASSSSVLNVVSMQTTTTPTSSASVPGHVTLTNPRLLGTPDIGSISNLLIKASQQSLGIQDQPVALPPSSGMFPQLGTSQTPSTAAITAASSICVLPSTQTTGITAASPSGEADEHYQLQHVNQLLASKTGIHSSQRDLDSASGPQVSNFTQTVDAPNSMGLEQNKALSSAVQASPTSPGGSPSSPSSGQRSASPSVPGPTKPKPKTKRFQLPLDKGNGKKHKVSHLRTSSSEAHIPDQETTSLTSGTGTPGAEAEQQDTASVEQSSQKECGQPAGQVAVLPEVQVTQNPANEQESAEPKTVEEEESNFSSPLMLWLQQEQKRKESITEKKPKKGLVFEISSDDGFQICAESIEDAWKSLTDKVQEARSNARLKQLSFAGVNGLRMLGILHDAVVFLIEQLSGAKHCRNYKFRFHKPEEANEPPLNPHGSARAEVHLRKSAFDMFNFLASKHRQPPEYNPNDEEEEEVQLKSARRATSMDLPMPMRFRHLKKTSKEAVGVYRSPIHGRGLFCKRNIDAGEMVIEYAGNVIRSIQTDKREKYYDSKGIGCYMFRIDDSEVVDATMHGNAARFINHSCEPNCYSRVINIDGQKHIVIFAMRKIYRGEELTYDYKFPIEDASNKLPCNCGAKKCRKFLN

[4] = Cytotoxicity against human PBMC cells assessed as cell viability incubated for 7 days by MTS assay; assay type: toxicity, cell-based
MV4-11 [5] = assay: Antiproliferative activity against human menin-sensitive MV4-11 cells assessed as inhibition of cell growth incubated for 7 days by MTS assay; assay type: functional, cell-based; settings: MV4-11, 168 h
REH = assay: Antiproliferative activity against human menin-insensitive REH cells assessed as inhibition of cell growth incubated for 7 days by MTS assay; assay type: functional, cell-based; settings: 168 h

| IC50 (MV4-11 [1]) | IC50 [3] | IC50 (MV4-11 [5]) | Compound | fold change (FC) [2] | IC50 at 7 days [4] | IC50 (REH) |
| --- | --- | --- | --- | --- | --- | --- |
| – | 0.0155 µM | – | CCN(C(=O)c1cc(F)ccc1Oc1cncnc1N1CC2(CCN(C[C@H]3CC[C@H](NS(=O)(=O)CC)CC3)CC2)C1)C(C)C [REVUMENIB] | – | > 3 µM | – |
| – | 0.0973 µM | 1.33 µM | C=CC(=O)Nc1cccc(N2CC(CN3CCN(c4ncncc4Nc4ccc(F)cc4C(=O)N(C(C)C)C(C)C)CC3)C2)c1 | – | – | 4.42 µM |
| – | 0.034 µM | 0.53 µM | C=CC(=O)Nc1ccc(N2CC(CN3CCN(c4ncncc4Nc4ccc(F)cc4C(=O)N(C(C)C)C(C)C)CC3)C2)cc1 | – | – | 4.28 µM |

The next lines start with the compound.

| Compound | IC50 (MV4-11 [1]) | IC50 [3] | IC50 (MV4-11 [5]) | fold change (FC) [2] | IC50 at 7 days [4] | IC50 (REH) |
| --- | --- | --- | --- | --- | --- | --- |
| COC(=O)N[C@H]1CCC[C@@H]1[C@](C#N)(c1cccc(F)c1)C1CCN(CC2CN(c3ccc(S(=O)(=O)C4CN(C(=O)/C=C/CN(C)C)C4)cc3)C2)CC1 | 0.0027 µM | – | – | – | – | – |
| CC(C)C[C@H](NC(=O)[C@H](CCc1ccccc1)NC(=O)CN1CCOCC1)C(=O)N[C@@H](Cc1ccccc1)C(=O)N[C@@H](CC(C)C)C(=O)[C@@]1(C)CO1 [CARFILZOMIB] | – | – | – | 1.16 | – | – |
| CCC(=O)Nc1cccc(N2CC(CN3CCN(c4ncncc4Nc4ccc(F)cc4C(=O)N(C(C)C)C(C)C)CC3)C2)c1 | – | 0.0956 µM | 1.51 µM | – | – | > 20 µM |
| CCC(=O)N1CC(S(=O)(=O)c2ccc(N3CC(CN4CCN(c5ncncc5Nc5ccc(F)cc5C(=O)N(C(C)C)C(C)C)CC4)C3)cc2)C1 | – | 0.0328 µM | 0.21 µM | – | – | > 20 µM |
